{
  "source": "patent US12103939B2",
  "about": "“Solid pharmaceutical gold-based composition” (KING FAHD UNIVERSITY OF PETROLEUM AND MINERALS, priority 2019, dated 2024)",
  "key": {"PC3 cells [1]": {"system": "PC3 cells", "test": "Apoptosis assay (Annexin V-FITC / propidium iodide, flow cytometry)", "assay_type": "cell-based, human", "settings": "PC3, C6 at IC50 and IC75, 24 h", "description": "For apoptosis assays, PC3 cells were treated with C6 for 24 h and then apoptosis was assayed by staining for 15 min with FITC Annexin V reagent (BD Pharmingen) and propidium iodide (PI). Apoptotic cells were detected by flow cytometry (BD FACSCanto II flow cytometer) and analyzed using BD FACSDiva v8.0.1 software (BD Biosciences). Caspase 3,7 activation was evaluated using fluorochrome-labeled inhibitors of caspases (FLICA) of the CaspaTag Caspase 3,7 In Situ Assay Kit, Fluorescein (Millipore) and evaluated by flow cytometry; data were expressed as mean fluorescence intensity."}, "PC3 cells [2]": {"system": "PC3 cells", "test": "Reactive oxygen species production (H2DCFDA)", "assay_type": "cell-based, human", "settings": "PC3, C6 at IC50 and IC75, 24 h", "description": "The production of reactive oxygen species (ROS) was evaluated using 2′,7′-dichlorodihydrofluorescein diacetate (H2DCFDA) (H2-DCF, DCF) (Invitrogen). Cells were pretreated with the antioxidant N-acetyl-L-cysteine (NAC; 5 mM) (Sigma) for 30 min before C6 was added. After 24 h of C6 treatment, cells were harvested and viable cells were counted by trypan blue dye exclusion. Then cells were washed, stained with 1 μM H2DCFDA for 30 min at 37° C., and finally ROS production was analyzed by flow cytometry."}, "PC3 cells [3]": {"system": "PC3 cells", "test": "Cell cycle distribution (PI staining)", "assay_type": "cell-based, human", "settings": "vs untreated cells", "description": "To assay the distribution of cells in the various phases of the cell cycle, PC3 cells were treated with C6 for 48 h, then harvested, fixed in cold 70% ethanol for 15 min and stained with PI solution (50 μg/mL PI, 0.1% NP-40, 100 μg/mL PureLink RNase A, 0.1% sodium citrate). After 1 h, cells were analyzed by flow cytometry. The distribution of cells in different cell cycle phases was quantified using ModFit LT 4.0 software."}, "[4]": {"system": "A549 lung cancer cell line", "test": "Cytotoxicity assay (MTT, 72 h)", "assay_type": "cell-based, human", "settings": "A549, MTT after 72 h, mean (SD); read-out: Half-maximal inhibitory concentration (IC50)", "description": "(§1) R-ME-180 and A2780cis cells were maintained in 1 μM cisplatin. Adipose-derived stromal cells were maintained in MSCGM BulletKit medium (Lonza). All cell lines were cultured at 37° C. in a 5% CO2, fully humidified atmosphere\n(§2) Cell lines were seeded in 96-well flat-bottomed microplates in 100 μL culture medium at the following densities: DU145, PC3 and MCF-7 cells (2.5×10^3 cells/well); A2780, A2780cis, ME-180, R-ME-180 and A549 cells (4.0×10^3 cells/well); and MG-63 cells (2.0×10^3 cells/well). Cells were allowed to adhere for 24 h. Then the medium was replaced with fresh medium alone or with one of the gold(III) complexes at increasing concentrations from 0 to 100 μM. The reference drugs cisplatin (0-100 μM) and doxorubicin (0-1 μM) were included as positive controls for growth inhibition. After 72 h, cell viability was assayed using the MTT assay.\n(§3) See Chou T. C.; Talalay P. Quantitative analysis of dose-effect relationships: the combined effects of multiple drugs or enzyme inhibitors. […] 22, 27-55, incorporated herein by reference in its entirety. IC50 values were reported as mean (SD). For drug-resistance cell lines, fold resistance (FR) was calculated as the ratio of the IC50 of the resistant cell line to the IC50 of the parental cell line."}, "[5]": {"system": "cisplatin-resistant R-ME-180 clone", "test": "Cytotoxicity assay (MTT, 72 h)", "assay_type": "cell-based, human", "description": "as §1, §2, §3"}, "[6]": {"system": "DU145 prostate cancer cell line", "test": "Cytotoxicity assay (MTT, 72 h)", "assay_type": "cell-based, human", "settings": "DU145, MTT after 72 h, mean (SD); read-out: Half-maximal inhibitory concentration (IC50)", "description": "as §1, §2, §3"}, "[7]": {"system": "MCF-7 breast cancer cell line", "test": "Cytotoxicity assay (MTT, 72 h)", "assay_type": "cell-based, human", "settings": "MCF-7, MTT after 72 h, mean (SD); read-out: Half-maximal inhibitory concentration (IC50)", "description": "as §1, §2, §3"}, "[8]": {"system": "MG-63 osteosarcoma cell line", "test": "Cytotoxicity assay (MTT, 72 h)", "assay_type": "cell-based, human", "settings": "MG63, MTT after 72 h, mean (SD); read-out: Half-maximal inhibitory concentration (IC50)", "description": "as §1, §2, §3"}, "[9]": {"system": "cisplatin- and doxorubicin-resistant A2780cis clone", "test": "Cytotoxicity assay (MTT, 72 h)", "assay_type": "cell-based, human", "description": "as §1, §2, §3"}, "[10]": {"system": "PC3 prostate cancer cell line", "test": "Cytotoxicity assay (MTT, 72 h)", "assay_type": "cell-based, human", "description": "as §1, §2, §3"}, "PC3 cells [11]": {"system": "PC3 cells", "test": "Double-stranded DNA breaks (histone H2A.X phosphorylation)", "assay_type": "cell-based, human", "settings": "PC3, 24 h", "description": "The presence of double-stranded DNA breaks was assessed 24 h after treatment with C6 by fixing and permeabilizing cells with Fix & Perm medium A and B (Invitrogen) and staining with FITC anti-H2A.X Phospho (Ser139) Antibody (BioLegend, San Diego, USA). Stained cells were evaluated by flow cytometry."}, "PC3 cell xenografts": {"system": "PC3 cell xenografts", "test": "Human prostate tumor xenograft experiment", "assay_type": "in vivo, female athymic nude mice", "description": "Animal experiments were approved by the Italian Ministry of Health (no. 671/2015/PR). Ten 4-week-old female athymic nu/nu (nude) mice were purchased from Envigo. PC3 cells (3×10^6 in a 0.1 mL solution of Matrigel 1:3 in PBS) were inoculated subcutaneously into the right flank of each mouse. Body weight and tumors were measured three times a week, and tumor volumes were calculated according to the formula: (width^2×length×3.14)/6. When tumors reached a volume of ca. 120 mm^3, mice were divided into two groups of five animals each. Mice were treated every other day with an intratumoral injection of 2.5 mg/kg C6 or an equal volume of vehicle (10% DMSO, 20% Cremophor Sigma-Aldrich, 70% PBS). Mice were killed on day 32 when control tumors had reached about 1300 mm^3."}, "PC3 cells [12]": {"system": "PC3 cells", "test": "Cellular uptake of gold(III) complexes (ICP-MS)", "assay_type": "cell-based, human", "settings": "3 μM, 2 h, ICP mass spectrometry", "description": "After treatment, monolayers were washed with ice-cold PBS four times, and the cells were detached with trypsin-EDTA and washed three times with ice-cold PBS by centrifugation. The cell pellet was solubilized in 700 μL of HNO3—HCl solution (1:3 molar ratio) for 2 h at 100° C., and then diluted with 4 mL water. Samples were analyzed for gold on an Agilent 7500 inductively coupled plasma mass spectrometer (ICP-MS). Results were expressed as ng gold/10^6 cells. The experiment was performed a total of two times and the results were expressed as mean and SD."}},
  "note": "“And” between values parts separate entries of the source, which are not always exact repeats. Equal entries are not always repeated.",
  "data": [
    {"smiles": "C[N+](C)=C1[S][Au-]2([S]1)[n+]1ccc[n+]3c1-c1[n+]2ccc[n+]1[Au-]31[S]C(=[N+](C)C)[S]1.[Cl-].[Cl-].[Cl-].[Cl-]", "note": "[C6, [Au2(BPM)(DMDTC)2]Cl4]", "values": [
      {"measurement": "percentage of annexin-V-positive and annexin-V/PI-positive cells (apoptosis)", "setting": "PC3 cells [1]", "result": "dose-dependent increase in the percentage of annexin-V-positive cells"},
      {"measurement": "ROS production", "setting": "PC3 cells [2]", "result": "induced ROS production in a dose-dependent manner"},
      {"measurement": "distribution of cells in the cell cycle", "setting": "PC3 cells [3]", "result": "increasing the percentage of cells in S phase and decreasing that in G1"},
      {"measurement": "IC50", "setting": "[4]", "result": 800, "unit": "nM"},
      {"measurement": "FR (R-ME-180/ME-180), fold resistance", "setting": "[5]; IC50 R-ME-180 / IC50 ME-180", "result": 0.9},
      {"measurement": "IC50", "setting": "[5]; R-ME-180, MTT after 72 h, mean (SD)", "result": 4900, "unit": "nM"},
      {"measurement": "IC50", "setting": "[6]", "result": 700, "unit": "nM"},
      {"measurement": "IC50", "setting": "[7]", "result": 500, "unit": "nM"},
      {"measurement": "IC50", "setting": "[8]", "result": 800, "unit": "nM"},
      {"measurement": "IC50", "setting": "[9]; A2780cis, MTT after 72 h, mean (SD)", "result": 300, "unit": "nM"},
      {"measurement": "FR (A2780cis/A2780), fold resistance", "setting": "[9]; IC50 A2780cis / IC50 A2780", "result": 1.2},
      {"measurement": "IC25", "setting": "[10]; PC3", "result": 310, "unit": "nM"},
      {"measurement": "IC75", "setting": "[10]; PC3", "result": 1850, "unit": "nM"},
      {"measurement": "IC50", "setting": "[10]; PC3, MTT after 72 h, mean (SD), read-out: Half-maximal inhibitory concentration (IC50)", "result": "600 nM and 620 nM"},
      {"measurement": "double-stranded DNA breaks (phosphorylation of histone H2A.X)", "setting": "PC3 cells [11]", "result": "increase in phosphorylation of histone H2A.X"},
      {"measurement": "inhibitory effect on tumor growth", "setting": "PC3 cell xenografts; day 32, 2.5 mg/kg intratumoral every other day, vs vehicle", "result": 71, "unit": "%"},
      {"measurement": "mean tumor volume", "setting": "PC3 cell xenografts; day 32, 2.5 mg/kg intratumoral every other day, control 1327 mm^3", "result": 385, "unit": "mm^3"},
      {"measurement": "weight of the animals", "setting": "PC3 cell xenografts; xenografted mice, 2.5 mg/kg intratumoral", "result": "did not affect the weight of the animals"},
      {"measurement": "amount of internalized gold (cellular uptake)", "setting": "PC3 cells [12]", "result": "internalization even greater than that of C7"}
    ]}
  ]
}
